In paper PMC11899342, “Novel Triazeneindole Antibiotics: Synthesis and Hit-to-Lead Optimization” (International Journal of Molecular Sciences, 2025):
Converted amounts (≈) assume the structure as drawn. Where two headings read alike, the source gives them in different places.

Key:
MRSA clinical isolates [1] = experiment: MIC by broth microdilution against multidrug-resistant MRSA clinical isolates; format: cell-based, Staphylococcus aureus; conditions: for MIC Range Against 8 MRSA Strains: 8 multidrug-resistant MRSA clinical isolates, tested 0.125-1 mg/L; for MIC: Staphylococcus aureus, MRSA, read-out: MIC against 8 MRSA strains
Method: (§1) Clinical MRSA isolates with multidrug resistance were obtained from the collection of the Research Institute of Antimicrobial Chemotherapy, Smolensk State Medical Academy.
The MICs were determined using a broth microdilution method according to [42]. Briefly, serial dilutions of the tested compounds in 50 µL of Mueller Hinton broth (BD) were prepared in 96-well microplates. The antibiotics vancomycin and linezolid (Sigma-Aldrich, St. Louis, MO, USA) were used as a positive control. Bacterial suspensions of the tested MRSA strains were prepared in the Mueller Hinton broth (BD) with a concentration 1 × 10^6 CFU/mL, and then 50 µL aliquots were added to the prepared microplates. The final concentrations of the antibiotics in the wells were 1, 0.5, 0.25, and 0.125 mg/L, for the tested compounds, and 2 mg/L for vancomycin and linezolid. Negative control (lack of bacterial cells) and growth control (lack of compound) wells were included in all plates. The microplates were incubated at 37 °C for 18 h. The growth was assessed visually after incubation, and the MIC was assumed as the lowest compound concentration at which a noticeable growth of the microorganisms was inhibited (no visible growth). All experiments were conducted in triplicate.

[2] = Solubility in water by HPLC; format: physicochemical; conditions: water, kinetic from dmso stock
Method: The solubility of the compounds in water was assessed using HPLC analysis. Two 1.0 mg portions of the test compounds were dissolved in 10 μL of dimethyl sulfoxide; 1.0 mL of acetonitrile was added to one sample (standard), and 1.0 mL of water was added to the second sample (tested sample). Both vials were mixed in a shaker for 5 min, then centrifuged at 10,000 rpm for 5 min. The supernatants were collected and analyzed using Agilent 1290 Infinity (Agilent Technologies, Santa Clara, CA, USA) with a YMC-Triart C18 50 × 2.0 mm, 1.9 μm column. The concentration of the test compound in water was determined by comparing the peak areas of the standard (concentration 1.0 mg/mL) and the tested sample.

MRSA clinical isolates [3] = experiment: Antibiotic susceptibility profile of MRSA clinical isolates (EUCAST breakpoints); format: cell-based, Staphylococcus aureus
Description: as §1

[4] = read-out: Solubility in water, mass concentration
[5] = read-out: Solubility in water, molar concentration

## CCOC(=O)c1c(/N=N/N(CC)CC)c2cccnc2n1C [BX-SI019, Ethyl (E)-3-(3,3-diethyltriaz-1-en-1-yl)-1-methyl-1H-pyrrolo[2,3-b]pyridine-2-carboxylate]
MRSA clinical isolates [1]
  MIC Range Against 8 MRSA Strains: >1 µg/mL
[2]; [4]
  solubility at 5 min: 88.2 µg/mL
[2]; [5]
  solubility at 5 min: 290 µM

## CCOC(=O)c1c(/N=N/N(C)Cc2ccccc2)c2cccnc2n1C [BX-SI020, Ethyl (E)-3-(3-benzyl-3-methyltriaz-1-en-1-yl)-1-methyl-1H-pyrrolo[2,3-b]pyridine-2-carboxylate]
MRSA clinical isolates [1]
  MIC Range Against 8 MRSA Strains: >1 µg/mL
[2]; [4]
  solubility at 5 min: 7.53 µg/mL
[2]; [5]
  solubility at 5 min: 20 µM

## CCOC(=O)c1c(/N=N/N2CCN(Cc3ccccc3)CC2)c2cccnc2n1C [BX-SI021, Ethyl (E)-3-((4-benzylpiperazin-1-yl)diazenyl)-1-methyl-1H-pyrrolo[2,3-b]pyridine-2-carboxylate]
MRSA clinical isolates [1]
  MIC Range Against 8 MRSA Strains: >1 µg/mL
[2]; [4]
  solubility at 5 min: 12.5 µg/mL
[2]; [5]
  solubility at 5 min: 10 µM

## CCOC(=O)c1c(/N=N/N(C)CCN(C)C)c2cccnc2n1C [BX-SI027, Ethyl (E)-3-(3-(2-(dimethylamino)ethyl)-3-methyltriaz-1-en-1-yl)-1-methyl-1H-pyrrolo[2,3-b]pyridine-2-carboxylate]
MRSA clinical isolates [1]
  MIC Range Against 8 MRSA Strains: >1 µg/mL
[2]; [4]
  solubility at 5 min: 927 µg/mL
[2]; [5]
  solubility at 5 min: 2780 µM

## CCOC(=O)c1[nH]c2cc(F)ccc2c1/N=N/N(CC)CC [BX-SI036, Ethyl (E)-3-(3,3-diethyltriaz-1-en-1-yl)-6-fluoro-1H-indole-2-carboxylate]
MRSA clinical isolates [1]
  MIC Range Against 8 MRSA Strains: >1 µg/mL
[2]; [4]
  solubility at 5 min: 10 µg/mL
[2]; [5]
  solubility at 5 min: 30 µM

## CCOC(=O)c1[nH]c2cc(F)ccc2c1/N=N/N(C)Cc1ccccc1 [BX-SI037, Ethyl (E)-3-(3-benzyl-3-methyltriaz-1-en-1-yl)-6-fluoro-1H-indole-2-carboxylate]
MRSA clinical isolates [1]
  MIC Range Against 8 MRSA Strains: 1 µg/mL (≈ 2.82 µM)
[2]; [4]
  solubility at 5 min: 18.4 µg/mL
[2]; [5]
  solubility at 5 min: 50 µM

## CCOC(=O)c1[nH]c2cc(F)ccc2c1/N=N/N1CCN(Cc2ccccc2)CC1 [BX-SI038, Ethyl (E)-3-((4-benzylpiperazin-1-yl)diazenyl)-6-fluoro-1H-indole-2-carboxylate]
MRSA clinical isolates [1]
  MIC Range Against 8 MRSA Strains: >1 µg/mL
[2]; [4]
  solubility at 5 min: 0.383 µg/mL
[2]; [5]
  solubility at 5 min: 1 µM

## CC(=O)NC[C@H]1CN(c2ccc(N3CCOCC3)c(F)c2)C(=O)O1 [Linezolid, linezolid]
MRSA clinical isolates [1]; Figure 6, MRSA strain 2
  MIC: 2 µg/mL (≈ 5.93 µM)
MRSA clinical isolates [1]; Figure 6, MRSA strain 7
  MIC: 2 µg/mL (≈ 5.93 µM)
MRSA clinical isolates [1]; Figure 6, MRSA strain 8
  MIC: 2 µg/mL (≈ 5.93 µM)
MRSA clinical isolates [1]; Figure 6, MRSA strain 9
  MIC: 2 µg/mL (≈ 5.93 µM)
MRSA clinical isolates [1]; Figure 6, MRSA strain 13
  MIC: 2 µg/mL (≈ 5.93 µM)
MRSA clinical isolates [1]; Figure 6, MRSA strain 21
  MIC: 2 µg/mL (≈ 5.93 µM)
MRSA clinical isolates [1]; Figure 6, MRSA strain 48
  MIC: 2 µg/mL (≈ 5.93 µM)
MRSA clinical isolates [1]; Figure 6, MRSA strain 50
  MIC: 2 µg/mL (≈ 5.93 µM)
MRSA clinical isolates [3]; MRSA strain 1
  Drug sensibility profile: S
MRSA clinical isolates [3]; MRSA strain 2
  Drug sensibility profile: S
MRSA clinical isolates [3]; MRSA strain 3
  Drug sensibility profile: S
MRSA clinical isolates [3]; MRSA strain 4
  Drug sensibility profile: S
MRSA clinical isolates [3]; MRSA strain 5
  Drug sensibility profile: S
MRSA clinical isolates [3]; MRSA strain 6
  Drug sensibility profile: S
MRSA clinical isolates [3]; MRSA strain 7
  Drug sensibility profile: S
MRSA clinical isolates [3]; MRSA strain 8
  Drug sensibility profile: S
MRSA clinical isolates [3]; MRSA strain 9
  Drug sensibility profile: S
MRSA clinical isolates [3]; MRSA strain 10
  Drug sensibility profile: S
MRSA clinical isolates [3]; MRSA strain 12
  Drug sensibility profile: S
MRSA clinical isolates [3]; MRSA strain 13
  Drug sensibility profile: S
MRSA clinical isolates [3]; MRSA strain 14
  Drug sensibility profile: S
MRSA clinical isolates [3]; MRSA strain 15
  Drug sensibility profile: S
MRSA clinical isolates [3]; MRSA strain 16
  Drug sensibility profile: S
MRSA clinical isolates [3]; MRSA strain 17
  Drug sensibility profile: S
MRSA clinical isolates [3]; MRSA strain 18
  Drug sensibility profile: S
MRSA clinical isolates [3]; MRSA strain 21
  Drug sensibility profile: S
MRSA clinical isolates [3]; MRSA strain 23
  Drug sensibility profile: S
MRSA clinical isolates [3]; MRSA strain 24
  Drug sensibility profile: S
MRSA clinical isolates [3]; MRSA strain 25
  Drug sensibility profile: S
MRSA clinical isolates [3]; MRSA strain 26
  Drug sensibility profile: S
MRSA clinical isolates [3]; MRSA strain 27
  Drug sensibility profile: S
MRSA clinical isolates [3]; MRSA strain 28
  Drug sensibility profile: S
MRSA clinical isolates [3]; MRSA strain 29
  Drug sensibility profile: S
MRSA clinical isolates [3]; MRSA strain 30
  Drug sensibility profile: S
MRSA clinical isolates [3]; MRSA strain 31
  Drug sensibility profile: S
MRSA clinical isolates [3]; MRSA strain 34
  Drug sensibility profile: S
MRSA clinical isolates [3]; MRSA strain 35
  Drug sensibility profile: S
MRSA clinical isolates [3]; MRSA strain 36
  Drug sensibility profile: S
MRSA clinical isolates [3]; MRSA strain 40
  Drug sensibility profile: S
MRSA clinical isolates [3]; MRSA strain 41
  Drug sensibility profile: S
MRSA clinical isolates [3]; MRSA strain 42
  Drug sensibility profile: S
MRSA clinical isolates [3]; MRSA strain 43
  Drug sensibility profile: S
MRSA clinical isolates [3]; MRSA strain 44
  Drug sensibility profile: S
MRSA clinical isolates [3]; MRSA strain 45
  Drug sensibility profile: S
MRSA clinical isolates [3]; MRSA strain 46
  Drug sensibility profile: S
MRSA clinical isolates [3]; MRSA strain 48
  Drug sensibility profile: S
MRSA clinical isolates [3]; MRSA strain 49
  Drug sensibility profile: S
MRSA clinical isolates [3]; MRSA strain 50
  Drug sensibility profile: S
MRSA clinical isolates [3]; MRSA strain 51
  Drug sensibility profile: S

## CN[C@H](CC(C)C)C(=O)N[C@H]1C(=O)N[C@@H](CC(N)=O)C(=O)N[C@H]2C(=O)N[C@H]3C(=O)N[C@H](C(=O)N[C@H](C(=O)O)c4cc(O)cc(O)c4-c4cc3ccc4O)[C@H](O)c3ccc(c(Cl)c3)Oc3cc2cc(c3O[C@@H]2O[C@H](CO)[C@@H](O)[C@H](O)[C@H]2O[C@H]2C[C@](C)(N)[C@H](O)[C@H](C)O2)Oc2ccc(cc2Cl)[C@H]1O [Vancomycin, vancomycin]
MRSA clinical isolates [1]
  MIC: 2 µg/mL (≈ 1.38 µM)
MRSA clinical isolates [3]; MRSA strain 1
  Drug sensibility profile: S
MRSA clinical isolates [3]; MRSA strain 2
  Drug sensibility profile: S
MRSA clinical isolates [3]; MRSA strain 3
  Drug sensibility profile: S
MRSA clinical isolates [3]; MRSA strain 4
  Drug sensibility profile: S
MRSA clinical isolates [3]; MRSA strain 5
  Drug sensibility profile: S
MRSA clinical isolates [3]; MRSA strain 6
  Drug sensibility profile: S
MRSA clinical isolates [3]; MRSA strain 7
  Drug sensibility profile: S
MRSA clinical isolates [3]; MRSA strain 8
  Drug sensibility profile: S
MRSA clinical isolates [3]; MRSA strain 9
  Drug sensibility profile: S
MRSA clinical isolates [3]; MRSA strain 10
  Drug sensibility profile: S
MRSA clinical isolates [3]; MRSA strain 12
  Drug sensibility profile: S
MRSA clinical isolates [3]; MRSA strain 13
  Drug sensibility profile: S
MRSA clinical isolates [3]; MRSA strain 14
  Drug sensibility profile: S
MRSA clinical isolates [3]; MRSA strain 15
  Drug sensibility profile: S
MRSA clinical isolates [3]; MRSA strain 16
  Drug sensibility profile: S
MRSA clinical isolates [3]; MRSA strain 17
  Drug sensibility profile: S
MRSA clinical isolates [3]; MRSA strain 18
  Drug sensibility profile: S
MRSA clinical isolates [3]; MRSA strain 21
  Drug sensibility profile: S
MRSA clinical isolates [3]; MRSA strain 23
  Drug sensibility profile: S
MRSA clinical isolates [3]; MRSA strain 24
  Drug sensibility profile: S
MRSA clinical isolates [3]; MRSA strain 25
  Drug sensibility profile: S
MRSA clinical isolates [3]; MRSA strain 26
  Drug sensibility profile: S
MRSA clinical isolates [3]; MRSA strain 27
  Drug sensibility profile: S
MRSA clinical isolates [3]; MRSA strain 28
  Drug sensibility profile: S
MRSA clinical isolates [3]; MRSA strain 29
  Drug sensibility profile: S
MRSA clinical isolates [3]; MRSA strain 30
  Drug sensibility profile: S
MRSA clinical isolates [3]; MRSA strain 31
  Drug sensibility profile: S
MRSA clinical isolates [3]; MRSA strain 34
  Drug sensibility profile: S
MRSA clinical isolates [3]; MRSA strain 35
  Drug sensibility profile: S
MRSA clinical isolates [3]; MRSA strain 36
  Drug sensibility profile: S
MRSA clinical isolates [3]; MRSA strain 40
  Drug sensibility profile: S
MRSA clinical isolates [3]; MRSA strain 41
  Drug sensibility profile: S
MRSA clinical isolates [3]; MRSA strain 42
  Drug sensibility profile: S
MRSA clinical isolates [3]; MRSA strain 43
  Drug sensibility profile: S
MRSA clinical isolates [3]; MRSA strain 44
  Drug sensibility profile: S
MRSA clinical isolates [3]; MRSA strain 45
  Drug sensibility profile: S
MRSA clinical isolates [3]; MRSA strain 46
  Drug sensibility profile: S
MRSA clinical isolates [3]; MRSA strain 48
  Drug sensibility profile: S
MRSA clinical isolates [3]; MRSA strain 49
  Drug sensibility profile: S
MRSA clinical isolates [3]; MRSA strain 50
  Drug sensibility profile: S
MRSA clinical isolates [3]; MRSA strain 51
  Drug sensibility profile: S
